Reference: ChEMBL document CHEMBL3885861, “Open TG-GATES”

Organism: Rattus norvegicus
Assay: Open TG-GATES - Regimen: Daily Repeat
Type: toxicity, organism-based, Sprague-Dawley
Set-up: regimen Daily Repeat, gender Male, age 6 weeks
Conditions: in vivo, po, 10 mg/kg, […], route gavage, dose level Low; for KIDNEY_L / KIDNEY_R / KIDNEY_TOTAL: tissue Kidney; for LIVER: tissue Liver; for A/G / ALP / ALT / AST / BUN / CRE / Ca / Cl / DBIL / GLC / IP / K / LDH / Na / PL / RALB / TBIL / TC / TG / TP / gamma-GTP: tissue Plasma

NC(=O)N/N=C/c1ccc([N+](=O)[O-])o1 [NITROFURAZONE]
Lym (tissue Blood, time 28 day): 76.4% | MCH (tissue Blood, time 28 day): 19.3 pg | MCHC (tissue Blood, time 28 day): 33.6% | MCV (tissue Blood, time 28 day): 57.6 fL | Mono (tissue Blood, time 28 day): 2.2% | Neu (tissue Blood, time 28 day): 19.4% | PT (tissue Blood, time 28 day): 14.8 s | Plat (tissue Blood, time 28 day): 94.4 x10_4/uL | RBC (tissue Blood, time 28 day): 761 x10_4/ul | Ret (tissue Blood, time 28 day): 3% | WBC (tissue Blood, time 28 day): 94.8 x10_2/uL | KIDNEY_L (time 7 day): 1.1 g | KIDNEY_R (time 7 day): 1.1 g | KIDNEY_TOTAL (time 7 day): 2.2 g | KIDNEY_L (time 14 day): 1.3 g | KIDNEY_R (time 14 day): 1.2 g | KIDNEY_TOTAL (time 14 day): 2.5 g | KIDNEY_L (time 28 day): 1.5 g | KIDNEY_R (time 28 day): 1.5 g | KIDNEY_TOTAL (time 28 day): 3.1 g | LIVER (time 7 day): 12.9 g | LIVER (time 14 day): 15.3 g | LIVER (time 28 day): 18.6 g | A/G (time 7 day): 0.9 | ALP (time 7 day): 1835.8 IU/L | ALT (time 7 day): 44.6 IU/L | AST (time 7 day): 70.8 IU/L | BUN (time 7 day): 15.6 mg/dL | CRE (time 7 day): 0.2 mg/dL | Ca (time 7 day): 11.1 mg/dL | Cl (time 7 day): 104 meq/L | DBIL (time 7 day): 0.016 mg/dL | GLC (time 7 day): 184 mg/dL | IP (time 7 day): 7.7 mg/dL | K (time 7 day): 3.7 meq/L | LDH (time 7 day): 67 IU/L | Na (time 7 day): 141.4 meq/L | PL (time 7 day): 156.4 mg/dL | RALB (time 7 day): 2.6 g/dL | TBIL (time 7 day): 0.05 mg/dL | TC (time 7 day): 83.4 mg/dL | TG (time 7 day): 102 mg/dL | TP (time 7 day): 5.6 g/dL | gamma-GTP (time 7 day): 1 IU/L | A/G (time 14 day): 0.8 | ALP (time 14 day): 1653.4 IU/L | ALT (time 14 day): 47.4 IU/L | AST (time 14 day): 83.6 IU/L | BUN (time 14 day): 17.8 mg/dL | CRE (time 14 day): 0.2 mg/dL | Ca (time 14 day): 10.9 mg/dL | Cl (time 14 day): 105 meq/L | DBIL (time 14 day): 0.014 mg/dL | GLC (time 14 day): 185.8 mg/dL | IP (time 14 day): 7.3 mg/dL | K (time 14 day): 4.1 meq/L | LDH (time 14 day): 92.4 IU/L | Na (time 14 day): 142.4 meq/L | PL (time 14 day): 156.2 mg/dL | RALB (time 14 day): 2.7 g/dL | TBIL (time 14 day): 0.044 mg/dL | TC (time 14 day): 77.8 mg/dL | TG (time 14 day): 123.8 mg/dL | TP (time 14 day): 5.8 g/dL | gamma-GTP (time 14 day): 1.4 IU/L | A/G (time 28 day): 0.8 | ALP (time 28 day): 1381.2 IU/L | ALT (time 28 day): 39.4 IU/L | AST (time 28 day): 64 IU/L | BUN (time 28 day): 17.4 mg/dL | CRE (time 28 day): 0.2 mg/dL | Ca (time 28 day): 10.8 mg/dL | Cl (time 28 day): 103.6 meq/L | DBIL (time 28 day): 0.014 mg/dL | GLC (time 28 day): 187.2 mg/dL | IP (time 28 day): 6.6 mg/dL | K (time 28 day): 3.6 meq/L | LDH (time 28 day): 47.8 IU/L | Na (time 28 day): 143 meq/L | PL (time 28 day): 154.2 mg/dL | RALB (time 28 day): 2.7 g/dL | TBIL (time 28 day): 0.062 mg/dL | TC (time 28 day): 78 mg/dL | TG (time 28 day): 133.6 mg/dL | TP (time 28 day): 6.2 g/dL | gamma-GTP (time 28 day): 1 IU/L
